Literature values in US20090162858A1, “Orthogonal chemical inducer of dimerization” (priority 2007, published 2009).

System: wild type Saccrharomyces cerevisiae
Conditions: [Game, 1975]

| Compound | growth of wild type yeast |
| --- | --- |
| COc1cc(Cc2cnc(N)nc2N)cc(OC)c1OC [Trimethoprim, 2,4-diamino-5-(3,4,5-trimethoxybenzyl)pyrimidine] | does not |
| CN(Cc1cnc2nc(N)nc(N)c2n1)c1ccc(C(=O)N[C@@H](CCC(=O)O)C(=O)O)cc1 [Methotrexate] | inhibits growth |
